# In PubChem BioAssay (NCI):
#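 Each compound was tested at five concentrations against cells in 96-well plates for 48 hours. GI50 is the concentration that inhibits growth by half. Definition used: TGI = concentration required for complete inhibition of growth.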
# Legend:
# Experiment in all cases: NCI tumour cell line growth inhibition, 48 h
# NCI-H522 lung = tested on: NCI-H522 lung
# NCI-H460 lung = tested on: NCI-H460 lung
# SNB-75 CNS = tested on: SNB-75 CNS
# SF-295 CNS = tested on: SF-295 CNS
# TK-10 renal = tested on: TK-10 renal
# SN12C renal = tested on: SN12C renal
# A498 renal = tested on: A498 renal
# SNB-19 CNS = tested on: SNB-19 CNS
# A549 NSCLC = tested on: A549 NSCLC
# CAKI-1 renal = tested on: CAKI-1 renal
SMILES,TGI (NCI-H522 lung) [µM],TGI (NCI-H460 lung) [µM],TGI (SNB-75 CNS) [µM],TGI (SF-295 CNS) [µM],TGI (TK-10 renal) [µM],TGI (SN12C renal) [µM],TGI (A498 renal) [µM],TGI (SNB-19 CNS) [µM],TGI (A549 NSCLC) [µM],TGI (CAKI-1 renal) [µM],GI50 (NCI-H522 lung) [µM],GI50 (A549 NSCLC) [µM],GI50 (CAKI-1 renal) [µM],GI50 (NCI-H460 lung) [nM],GI50 (SF-295 CNS) [nM]
N#Cc1c(O)c(/C=N/c2ncccn2)c(=O)n2c1[nH]c1ccccc12,> 100,> 100,> 100,> 100,> 100,> 100,> 100,> 100,> 100,> 100,,,,,
COc1cccc(C2c3cc4c(cc3OC(Nc3ccccc3)C2C)OCO4)c1OC (stereo not given),95,> 100,> 100,> 100,> 100,> 100,> 100,> 100,> 100,> 100,,,,,
CC[C@@]1(O)C(=O)OCc2c1cc1n(c2=O)Cc2c-1nc1ccccc1c2/C=N/NC(=O)c1ccc(N)cc1,,15.2,,14.7,> 100,16.2,6.18,> 100,> 100,5.06,,,,,
COc1ccccc1C1c2cc3c(cc2OC(N2CCOCC2)C1C)OCO3 (stereo not given),30.1,40.7,,35.5,> 100,38.1,,37.8,47.3,,,,,,
CCOC(=O)c1c(NC(=S)Nc2ccccc2)sc2c1CCOC2,> 100,> 100,62.1,> 100,> 100,> 100,> 100,> 100,> 100,> 100,,,,,
NS(=O)(=O)c1ccc(/C=C/c2ccc(O)cc2)cc1,50.2,> 100,78.6,65,> 100,> 100,> 100,> 100,55.4,32.6,13.8,13.9,5.59,,
O=C(CC(Cl)=C(Cl)Cl)c1ccccc1,69.6,> 100,> 100,> 100,> 100,,> 100,> 100,> 100,53.6,,,,,
c1ccc([I+]c2ccccc2)cc1,> 100,> 100,,> 100,> 100,> 100,> 100,> 100,> 100,> 100,,,,,
N#CNC(=NCCc1c[nH]c2ccccc12)Oc1ccccc1,,> 100,> 100,> 100,> 100,> 100,,> 100,> 100,,,,,,
O=C(NNC(=O)c1csc(NC(=S)NC2CCCCC2)n1)c1ccccc1,28.4,,> 100,51.9,85.6,22.5,76.2,,54.1,39.5,,,,,
c1ccc2c(c1)OC(N1CCCC1)c1cnc(N3CCOCC3)nc1-2 (stereo not given),,> 100,54.4,> 100,> 100,> 100,39.7,> 100,> 100,> 100,,,,,
Cc1cnc2sn(-c3ccc(Br)cc3)c(=O)c2c1,16.9,> 100,> 100,97.8,> 100,> 100,,> 100,> 100,30.7,,,,,
CCOC(=O)C(Cl)(NC(=O)OCc1ccccc1)C(F)(F)F (stereo not given),> 100,,> 100,> 100,> 100,> 100,> 100,> 100,> 100,> 100,,,,,
CC1C(C#N)(C#N)C(C#N)=C(N)C1(Cl)[N+](=O)[O-] (stereo not given),6.1,,24.7,36.1,28.2,20.9,31.5,35,54.6,18.6,,,,,
CCOC1CC(C)N(C(=O)c2ccccc2)O1 (stereo not given),,> 100,,> 100,> 100,> 100,> 100,> 100,> 100,,,,,,
COc1ccc(NC(=S)c2ccoc2C)cc1CC(=O)OC(C)C,> 100,> 100,93.9,> 100,> 100,> 100,,> 100,> 100,> 100,,,,,
Cc1n(Cc2ccccc2)nc2sc(N)n[n+]12,> 100,,> 100,> 100,> 100,> 100,> 100,> 100,> 100,> 100,,,,,
CC(Cl)CC(=O)OCC1CCCN2CCCCC12 (stereo not given),,> 100,> 100,> 100,> 100,> 100,> 100,> 100,> 100,> 100,,,,,
Cc1cccc(N/C(Sc2ccccc2)=C(/C(Cl)=C(Cl)Cl)[N+](=O)[O-])c1,,> 100,68,36.2,,35.1,40.6,> 100,47.4,37.3,,,,,
Cn1cc(-c2csc(-c3cn(C)c4ccccc34)n2)c2ccccc21,> 100,> 100,,> 100,> 100,> 100,48.1,> 100,> 100,> 100,,,,,
Cc1cnc2[nH]c(-c3ccc4ccccc4c3)cc(=O)c2c1,2.25,> 100,> 100,> 100,> 100,> 100,,> 100,> 100,,,,,394,549
Cn1c(N)nc(-c2ccc(Cl)cc2)c1SSc1c(-c2ccc(Cl)cc2)nc(N)n1C,3.62,15.3,20.8,21.4,3.32,,27.8,27.8,27.2,,,,,,
Cc1ccc(C(=O)N/N=C(\N=Nc2ccc(C(=O)O)cc2)c2ccc(N(CCC#N)CCC#N)cc2C)cc1,,> 100,> 100,> 100,> 100,> 100,> 100,> 100,> 100,> 100,,,,,
